One assay has as its system H9c2. The assay can be described thus: cells. Type of assay: functional, cell-based. The settings on record: Rattus norvegicus, H9c2, Myocardium.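 Note: confirmatory concentration-response retest of ultra-high-throughput screening hits for modulation of myocardial damage; cell death induced by hydrogen peroxide oxidative stress; compound pretreatment for 60 min then peroxide exposure for 2 h; potency is for protecting the cells against peroxide damage rather than for killing them.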
Assay [1] deals with Mothers against decapentaplegic homolog 3 (Homo sapiens, UniProt P84022). The assay can be described thus: SMAD3 transcription factor inhibitors, dose response (AID 715). Type of assay: functional.
Chain of Mothers against decapentaplegic homolog 3 (P84022 whole entry, the tested form may be a part): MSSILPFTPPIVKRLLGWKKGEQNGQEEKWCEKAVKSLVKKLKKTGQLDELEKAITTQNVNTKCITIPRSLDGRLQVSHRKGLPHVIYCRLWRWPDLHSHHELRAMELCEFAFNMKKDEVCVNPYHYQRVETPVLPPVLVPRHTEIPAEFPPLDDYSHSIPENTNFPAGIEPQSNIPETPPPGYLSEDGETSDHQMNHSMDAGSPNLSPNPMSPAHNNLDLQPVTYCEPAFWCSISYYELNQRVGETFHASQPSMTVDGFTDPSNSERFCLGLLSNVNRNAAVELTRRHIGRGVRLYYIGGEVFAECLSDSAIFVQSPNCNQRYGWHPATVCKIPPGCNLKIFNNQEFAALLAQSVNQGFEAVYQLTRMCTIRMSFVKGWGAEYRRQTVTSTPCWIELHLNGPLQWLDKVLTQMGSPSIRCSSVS
Assay [2] has as its target T1, Fatty acid synthase (Homo sapiens, UniProt P49327). The assay can be described thus: FAS thioesterase domain inhibitors, dose response, biochemical, endpoint fluorescence intensity, uHTS hits (AID 624327).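 Note: fluorescence from hydrolysis of an O-methyl fluorescein acyl ester substrate by the enzyme.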 In kind it is functional.
The next assay addresses T2, Coagulation factor XII (Homo sapiens, UniProt P00748).
T2 sequence (P00748 whole entry): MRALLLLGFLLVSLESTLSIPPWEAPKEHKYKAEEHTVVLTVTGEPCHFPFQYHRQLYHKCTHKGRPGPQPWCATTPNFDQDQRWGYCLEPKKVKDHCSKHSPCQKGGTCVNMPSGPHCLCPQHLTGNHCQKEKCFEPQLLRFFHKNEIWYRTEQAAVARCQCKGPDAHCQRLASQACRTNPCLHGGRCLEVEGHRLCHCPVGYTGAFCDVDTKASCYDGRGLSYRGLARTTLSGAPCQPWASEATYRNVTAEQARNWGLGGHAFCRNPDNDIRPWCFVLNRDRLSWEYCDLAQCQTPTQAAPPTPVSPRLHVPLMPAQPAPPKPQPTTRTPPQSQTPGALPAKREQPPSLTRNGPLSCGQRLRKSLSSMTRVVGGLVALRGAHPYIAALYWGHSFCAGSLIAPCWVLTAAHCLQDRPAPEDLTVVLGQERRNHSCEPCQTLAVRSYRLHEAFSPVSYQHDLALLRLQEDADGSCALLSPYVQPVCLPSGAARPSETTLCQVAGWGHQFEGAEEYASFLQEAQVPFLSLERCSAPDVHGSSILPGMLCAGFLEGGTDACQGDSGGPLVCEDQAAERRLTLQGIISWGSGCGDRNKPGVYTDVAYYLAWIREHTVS
In kind it is functional.

The target in assay [3] is T1, Fatty acid synthase. The assay can be described thus: FAS thioesterase domain inhibitors, dose response, biochemical, kinetic fluorescence intensity (AID 624326).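 Note: rate of fluorescence rise from hydrolysis of a fluorogenic O-methyl fluorescein ester substrate.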 Type of assay: functional.
Another assay deals with Genome polyprotein (dengue virus type 2, UniProt P29990). The assay can be described thus: Dengue-2 NS5 methyltransferase inhibitors, primary screen, biochemical, confirmation dose response (AID 588689). In kind it is functional.
Chain of Genome polyprotein (P29990 2492-3391 limits assumed): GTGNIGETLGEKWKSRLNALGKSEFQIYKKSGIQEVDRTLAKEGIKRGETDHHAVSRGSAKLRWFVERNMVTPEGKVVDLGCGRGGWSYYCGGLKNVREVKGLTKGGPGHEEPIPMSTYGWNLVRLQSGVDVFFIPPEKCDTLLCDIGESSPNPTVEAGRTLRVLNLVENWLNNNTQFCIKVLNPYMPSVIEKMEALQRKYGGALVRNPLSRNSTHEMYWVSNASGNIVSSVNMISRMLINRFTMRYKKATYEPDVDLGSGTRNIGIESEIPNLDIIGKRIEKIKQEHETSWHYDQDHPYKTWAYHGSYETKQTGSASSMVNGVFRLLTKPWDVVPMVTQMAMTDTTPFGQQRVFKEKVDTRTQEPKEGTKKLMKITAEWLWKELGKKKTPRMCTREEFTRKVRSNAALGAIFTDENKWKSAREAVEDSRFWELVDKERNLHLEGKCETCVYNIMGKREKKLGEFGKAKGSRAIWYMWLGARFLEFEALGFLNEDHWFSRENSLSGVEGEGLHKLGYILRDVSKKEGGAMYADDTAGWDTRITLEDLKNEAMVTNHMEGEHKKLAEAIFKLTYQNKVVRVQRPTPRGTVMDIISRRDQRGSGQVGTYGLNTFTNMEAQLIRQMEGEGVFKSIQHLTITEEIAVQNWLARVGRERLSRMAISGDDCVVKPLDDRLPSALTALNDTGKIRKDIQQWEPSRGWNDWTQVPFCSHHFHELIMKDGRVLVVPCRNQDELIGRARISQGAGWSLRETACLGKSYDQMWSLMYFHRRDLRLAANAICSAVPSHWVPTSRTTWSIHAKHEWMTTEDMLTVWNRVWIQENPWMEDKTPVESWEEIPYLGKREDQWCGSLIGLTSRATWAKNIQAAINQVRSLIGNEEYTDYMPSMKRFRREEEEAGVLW
In the next assay the target is Prothrombin (Homo sapiens, UniProt P00734). The assay can be described thus: Thrombin 1536 HTS Dose Response Confirmation. [Related pubchem assays: 1046 (Thrombin 1536 HTS; hits were confirmed in this assay)]. Type of assay: functional.
Assay [4] in a line: Luminescence Cell-Based Dose Confirmation HTS to Identify Inhibitors of Polyadenylation. In kind it is functional.
Assay [5] is described as follows: cells. In kind it is functional.
Assay [6] has as its target Peroxisome proliferator-activated receptor gamma/Nuclear receptor coactivator 3 (Homo sapiens, UniProt P37231). The assay can be described thus: TR-FRET dose response biochemical High Throughput Screening assay for agonists of the steroid receptor coactivator 3 (SRC-3) recruitment by the peroxisome proliferator-activated receptor gamma (PPAR gamma): non-selective agonists. [Related pubchem assays: 1301 (Confirmation screen.), 1048 (Primary screen.)]. Type of assay: functional.

A further assay concerns the target Estrogen receptor beta (Homo sapiens, UniProt Q92731). The assay can be described thus: ERβ–SRC-3 coactivator interaction inhibitors, confirmation, orthogonal assay, biochemical, ELISA, streptavidin-HRP readout (AID 1060). On the technique in general: An ELISA detects its analyte on a solid surface through an enzyme-linked reagent.
In assay [7] the target is Peroxisome proliferator-activated receptor gamma/Nuclear receptor coactivator 1 (Homo sapiens, UniProt P37231). The assay can be described thus: TR-FRET dose response biochemical High Throughput Screening assay for agonists of the steroid receptor coactivator 1 (SRC-1) recruitment by the peroxisome proliferator-activated receptor gamma (PPAR gamma): non-selective agonists. [Related pubchem assays (depositor defined):AID1300, AID1808, AID504735, AID631]. In kind it is protein assay.

Assay [8] deals with T3, Heat shock factor protein 1 (Mus musculus, UniProt P38532).
T3 sequence (P38532 whole entry): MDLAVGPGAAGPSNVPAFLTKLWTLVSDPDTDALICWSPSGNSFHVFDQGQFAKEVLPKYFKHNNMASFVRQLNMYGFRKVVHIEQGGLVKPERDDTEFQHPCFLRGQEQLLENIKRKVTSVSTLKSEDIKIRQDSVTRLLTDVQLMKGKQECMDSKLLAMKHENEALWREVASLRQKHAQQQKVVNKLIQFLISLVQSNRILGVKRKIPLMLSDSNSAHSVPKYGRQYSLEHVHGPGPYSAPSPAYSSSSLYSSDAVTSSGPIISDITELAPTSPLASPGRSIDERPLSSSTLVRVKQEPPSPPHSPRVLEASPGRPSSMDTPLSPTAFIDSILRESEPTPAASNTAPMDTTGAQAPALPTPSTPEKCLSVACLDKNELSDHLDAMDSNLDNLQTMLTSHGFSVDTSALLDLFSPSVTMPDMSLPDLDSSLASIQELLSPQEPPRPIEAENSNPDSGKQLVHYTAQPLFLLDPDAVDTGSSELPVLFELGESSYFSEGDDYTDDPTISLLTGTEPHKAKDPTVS
The assay can be described thus: HSF1 potentiators in luciferase reporter cells, confirmation, cell-based, NIH3T3, luminescence, dose retest (AID 435004).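 Note: stress induced by proteasome inhibitor MG132 added 30 min after compound; luciferase reporter driven by HSF1 response element in NIH3T3 cells; actives raise luminescence as potentiators of the MG132 stress response.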 Type of assay: functional.

Assay [9] has as its target Peroxisome proliferator-activated receptor gamma/Nuclear receptor coactivator 2 (Homo sapiens, UniProt P37231). The assay can be described thus: TR-FRET dose response biochemical High Throughput Screening assay for agonists of the steroid receptor coactivator 2 (SRC-2) recruitment by the peroxisome proliferator-activated receptor gamma (PPAR gamma): non-selective agonists. [Related pubchem assays: 1297, 1032 ]. In kind it is functional. For orientation: Time-resolved FRET reads energy transfer from a long-lived donor to a nearby acceptor.

Assay [10] can be described thus: cells. Type of assay: functional, cell-based.
Another assay addresses T4, Streptokinase A (Streptococcus pyogenes serotype M1, UniProt P10520).
T4 sequence (P10520 whole entry): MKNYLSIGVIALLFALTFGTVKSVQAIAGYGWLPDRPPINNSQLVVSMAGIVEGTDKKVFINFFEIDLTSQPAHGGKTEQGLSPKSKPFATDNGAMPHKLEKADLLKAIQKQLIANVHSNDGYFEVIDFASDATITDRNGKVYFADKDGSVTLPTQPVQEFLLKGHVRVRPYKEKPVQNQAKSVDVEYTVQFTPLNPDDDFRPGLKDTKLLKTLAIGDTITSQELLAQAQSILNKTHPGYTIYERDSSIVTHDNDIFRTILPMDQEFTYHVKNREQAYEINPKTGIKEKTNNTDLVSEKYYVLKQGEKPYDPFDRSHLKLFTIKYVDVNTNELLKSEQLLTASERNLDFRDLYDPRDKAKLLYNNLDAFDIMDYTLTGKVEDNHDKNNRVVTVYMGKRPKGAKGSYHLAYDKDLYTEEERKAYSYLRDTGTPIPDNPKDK
The assay can be described thus: S. pyogenes streptokinase expression inhibitors, potency, dose response, plasminogen activation absorbance, OD405 (AID 1914).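 Note: secreted streptokinase activity via plasminogen activation per viability signal from cell pellet.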 Type of assay: functional, Streptococcus pyogenes M1 GAS.

A short description of assay [11]: inhibitors of SNCA 5'UTR-driven reporter translation, confirmation, H4 neuroglioma cells, luminescence (AID 1988). Type of assay: functional, cell-based.
Assay [12] in a line: luciferase reporter signal reduction – luminescence, H4-C neuroglioblastoma cells, dose response (AID 2458).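 Note: H4 neuroglioblastoma cells stably carrying a luciferase reporter gene fusion.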 In kind it is functional, cell-based.
Assay [13] in a line: Luminescence Cell-Based Dose Response HTS to Identify Inhibitors of 5'UTR Stem-Loop Driven Prion Protein mRNA Translation in H4 Neuroglioblastoma Cells. [Related pubchem assays: 1827 (Project Summary), 1813 (Primary HTS)]. Type of assay: functional.
A short description of assay [14]: Luminescence-based dose response cell-based high throughput screening assay for cytotoxic compounds using the IEC-6 intestinal epithelial cell line. [Related pubchem assays: 1858 (Summary AID.), 1825 (Counterscreen.), 1907 (Confirmation screen.)]. In kind it is functional. On the technique in general: A counterscreen serves to expose hits that act by an unwanted route or on another target.

The target in another assay is Paired box protein Pax-8 (Homo sapiens, UniProt Q06710). The assay can be described thus: inhibitors of PAX8-driven TPO luciferase reporter, dose response, RMG-I cells, cherry-pick (AID 687027).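 Note: luciferase reporter driven by Pax8 target thyroperoxidase promoter measured by SteadyGlo luminescence.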 Type of assay: functional, cell-based.
Assay [15] can be described thus: inhibitors of firefly luciferase expression or activity, dose response, H4 neuroglioma cells, luminescence (AID 1990). In kind it is functional, cell-based.
The next assay concerns Streptococcus. The assay can be described thus: Group A Streptococcus viability loss, dose response, counter-screen for streptokinase expression inhibitor project, luminescence, BacTiterGlo (AID 1915).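 Note: potency for reduction of bacterial viability or growth.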 In kind it is functional, organism-based.
The target of assay [16] is Photoreceptor-specific nuclear receptor (Homo sapiens, UniProt Q9Y5X4). Type of assay: functional, cell-based.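 Note: CHO-S cells with Gal4-NCOR and VP16-NR2E3 two-hybrid luciferase reporter.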
Chain of Photoreceptor-specific nuclear receptor (Q9Y5X4 whole entry, the tested form may be a part): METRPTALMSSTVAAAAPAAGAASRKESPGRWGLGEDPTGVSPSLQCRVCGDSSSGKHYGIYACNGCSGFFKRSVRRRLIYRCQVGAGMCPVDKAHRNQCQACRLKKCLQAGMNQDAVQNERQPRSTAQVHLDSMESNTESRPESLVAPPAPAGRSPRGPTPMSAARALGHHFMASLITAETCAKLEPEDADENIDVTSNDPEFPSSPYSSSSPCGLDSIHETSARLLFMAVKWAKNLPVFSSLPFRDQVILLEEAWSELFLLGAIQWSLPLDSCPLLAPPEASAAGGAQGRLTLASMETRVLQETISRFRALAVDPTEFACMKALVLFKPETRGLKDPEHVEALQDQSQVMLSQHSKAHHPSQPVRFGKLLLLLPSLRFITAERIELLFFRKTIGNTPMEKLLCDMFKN
In assay [17] the test system is Streptococcus sp. 'group A'. The assay can be described thus: growth inhibition of control SK(-) GAS strain, dose response, counter-screen for streptokinase expression inhibitor project, luminescence, kanamycin, BacTiterGlo, confirmation (AID 1900). Type of assay: functional, organism-based.
Assay [18] in a line: inhibitors of SNCA 5'UTR-driven translation, confirmation, luminescence, H4 neuroglioblastoma cells, dose confirmation (AID 2454).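 Note: H4 neuroglioblastoma cells carrying an alpha-synuclein 5'UTR luciferase reporter; potency for inhibition of the luciferase signal.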 Type of assay: functional, cell-based.

Calls of active or inactive are those of the source.

One may read the IC50 as the point on the concentration scale where inhibition reaches its midpoint. The term EC50 denotes the concentration at which the effect is half-maximal. By AC50 is commonly meant the midpoint of the concentration-response curve, whichever way the signal moves.

T1 sequence (P49327 whole entry, the tested form may be a part): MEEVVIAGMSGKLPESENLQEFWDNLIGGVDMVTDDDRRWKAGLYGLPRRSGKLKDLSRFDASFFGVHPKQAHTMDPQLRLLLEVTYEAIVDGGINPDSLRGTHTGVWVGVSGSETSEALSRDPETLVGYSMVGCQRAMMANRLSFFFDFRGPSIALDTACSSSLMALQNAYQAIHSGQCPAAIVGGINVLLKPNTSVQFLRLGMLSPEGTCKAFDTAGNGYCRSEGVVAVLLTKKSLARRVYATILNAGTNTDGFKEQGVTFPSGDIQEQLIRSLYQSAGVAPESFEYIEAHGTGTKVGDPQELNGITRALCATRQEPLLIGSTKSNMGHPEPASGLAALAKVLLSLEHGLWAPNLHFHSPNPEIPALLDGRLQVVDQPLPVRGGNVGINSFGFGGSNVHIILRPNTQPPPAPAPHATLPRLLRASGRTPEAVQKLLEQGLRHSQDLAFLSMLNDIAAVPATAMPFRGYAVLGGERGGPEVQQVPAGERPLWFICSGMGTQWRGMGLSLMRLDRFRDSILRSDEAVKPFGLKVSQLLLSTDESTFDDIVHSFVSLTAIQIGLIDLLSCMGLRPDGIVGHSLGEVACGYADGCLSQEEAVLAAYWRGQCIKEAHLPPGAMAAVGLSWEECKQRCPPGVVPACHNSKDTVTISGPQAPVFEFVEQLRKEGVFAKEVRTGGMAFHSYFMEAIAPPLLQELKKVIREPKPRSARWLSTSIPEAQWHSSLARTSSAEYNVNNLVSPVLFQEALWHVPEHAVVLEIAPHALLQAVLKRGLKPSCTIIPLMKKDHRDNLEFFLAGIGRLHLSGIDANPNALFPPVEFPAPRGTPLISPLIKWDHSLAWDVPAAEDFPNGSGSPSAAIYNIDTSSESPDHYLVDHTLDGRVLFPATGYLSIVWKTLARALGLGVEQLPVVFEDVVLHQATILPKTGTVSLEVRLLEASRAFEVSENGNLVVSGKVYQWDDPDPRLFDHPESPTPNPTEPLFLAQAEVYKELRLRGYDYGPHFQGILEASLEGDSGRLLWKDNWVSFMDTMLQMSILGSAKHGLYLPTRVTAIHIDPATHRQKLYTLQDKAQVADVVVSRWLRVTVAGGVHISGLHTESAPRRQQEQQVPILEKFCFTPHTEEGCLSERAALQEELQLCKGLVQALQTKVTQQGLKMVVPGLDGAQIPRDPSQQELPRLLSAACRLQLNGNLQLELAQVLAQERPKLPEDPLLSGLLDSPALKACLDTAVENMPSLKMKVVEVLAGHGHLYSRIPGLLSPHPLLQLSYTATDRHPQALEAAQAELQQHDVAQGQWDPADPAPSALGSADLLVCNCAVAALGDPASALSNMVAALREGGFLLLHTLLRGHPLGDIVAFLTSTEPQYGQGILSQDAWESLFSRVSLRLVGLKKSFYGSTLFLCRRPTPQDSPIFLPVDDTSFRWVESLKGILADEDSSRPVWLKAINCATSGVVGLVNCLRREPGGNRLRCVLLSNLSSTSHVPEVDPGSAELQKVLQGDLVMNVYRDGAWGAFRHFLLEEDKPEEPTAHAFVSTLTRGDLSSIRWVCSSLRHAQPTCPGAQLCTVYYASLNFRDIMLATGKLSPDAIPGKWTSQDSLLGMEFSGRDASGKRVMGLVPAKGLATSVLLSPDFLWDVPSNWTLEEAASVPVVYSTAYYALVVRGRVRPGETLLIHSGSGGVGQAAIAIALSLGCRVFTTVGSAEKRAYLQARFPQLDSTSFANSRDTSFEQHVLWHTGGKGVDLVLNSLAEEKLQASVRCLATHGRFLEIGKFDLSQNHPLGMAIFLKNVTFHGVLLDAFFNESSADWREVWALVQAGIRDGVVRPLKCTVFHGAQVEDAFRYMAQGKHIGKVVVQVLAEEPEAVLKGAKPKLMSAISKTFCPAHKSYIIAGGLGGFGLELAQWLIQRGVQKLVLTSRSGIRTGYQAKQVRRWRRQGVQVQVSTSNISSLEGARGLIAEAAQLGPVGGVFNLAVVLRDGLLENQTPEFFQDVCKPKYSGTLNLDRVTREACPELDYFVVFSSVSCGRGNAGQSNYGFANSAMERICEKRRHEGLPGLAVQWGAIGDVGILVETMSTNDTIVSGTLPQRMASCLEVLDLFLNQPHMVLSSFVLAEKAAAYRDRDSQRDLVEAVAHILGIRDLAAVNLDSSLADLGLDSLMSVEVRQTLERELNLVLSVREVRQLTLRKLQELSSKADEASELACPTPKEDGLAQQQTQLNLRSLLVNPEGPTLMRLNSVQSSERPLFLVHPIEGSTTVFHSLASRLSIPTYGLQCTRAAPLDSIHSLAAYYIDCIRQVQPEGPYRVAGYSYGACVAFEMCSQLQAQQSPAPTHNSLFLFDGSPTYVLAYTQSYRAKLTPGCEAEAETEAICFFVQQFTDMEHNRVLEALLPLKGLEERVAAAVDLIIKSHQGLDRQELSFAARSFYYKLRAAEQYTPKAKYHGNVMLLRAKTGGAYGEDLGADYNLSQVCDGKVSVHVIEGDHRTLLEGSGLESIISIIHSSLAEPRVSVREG
Chain of Estrogen receptor beta (Q92731 whole entry): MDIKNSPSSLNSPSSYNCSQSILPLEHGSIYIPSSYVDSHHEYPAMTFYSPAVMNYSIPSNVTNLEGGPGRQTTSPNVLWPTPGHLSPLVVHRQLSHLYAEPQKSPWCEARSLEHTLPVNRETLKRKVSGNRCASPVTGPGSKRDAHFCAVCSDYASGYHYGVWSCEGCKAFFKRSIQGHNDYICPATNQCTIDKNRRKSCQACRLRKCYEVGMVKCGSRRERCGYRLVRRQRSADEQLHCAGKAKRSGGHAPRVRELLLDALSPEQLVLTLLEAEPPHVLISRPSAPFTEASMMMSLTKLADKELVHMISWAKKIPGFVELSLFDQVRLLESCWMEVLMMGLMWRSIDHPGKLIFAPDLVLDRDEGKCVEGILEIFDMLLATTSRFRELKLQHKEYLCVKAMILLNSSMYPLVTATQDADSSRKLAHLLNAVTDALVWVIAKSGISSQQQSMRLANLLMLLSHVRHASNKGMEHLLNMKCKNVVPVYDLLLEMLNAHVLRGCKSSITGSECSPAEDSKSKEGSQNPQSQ

Consider `Cc1ccc(N2C(=O)CS/C2=C(\C(Cl)=C(Cl)Cl)[N+](=O)[O-])cc1`, for which the IC50 in the assay with H9c2 is > 79 µM (inactive); in [1], 27.7 µM (active).

As for `Cc1ccc(S(=O)(=O)ON2C(=O)c3ccccc3C2=O)c(C)c1`, the IC50 on Fatty acid synthase [2] is 1.35 µM (active); at Coagulation factor XII, 8.48 µM (active); on Fatty acid synthase [3], 1.39 µM (active); at Genome polyprotein it was 96.3 µM (active); on Prothrombin, 0.856 µM (active).

In the case of `Cc1cc2c(cc1S(=O)(=O)N(C)c1ccccc1)n(C)c(=O)n2C`, the EC50 in assay [4] was > 120 µM (not active).

For the molecule `COc1cccc2cc(-c3nc4ccccc4o3)c(=O)oc12`, the EC50 in assay [4] is given as > 120 µM (not active). In addition, the IC50 in “cells [5]” was 14.9 µM (active).

On to `COC(=O)c1ccc(CSc2ncnc3c2oc2ccccc23)o1`, for which the IC50 was 14.7 µM (active) in [1] and 0.0578 µM (not active) at Estrogen receptor beta. Besides, the EC50 in assay [6] was > 79.4 µM (not active); in [7], 29.1 µM (inactive); in assay [8] it was > 260 µM (inactive); in assay [9], > 8.82 µM (not active).

Consider `CC(C)N1CCc2c(sc(NC(=O)c3ccc([N+](=O)[O-])o3)c2C(N)=O)C1`, for which the IC50 at Fatty acid synthase [2] is 6.27 µM (active); at Fatty acid synthase [3] it was 5.65 µM (active); in assay [14], 1.32 µM (active); in assay [16] it was 4.58 µM (active). Moreover, the concentration for a half-maximal effect (EC50) in the assay “cells [10]” was 0.496 µM (active); on Streptokinase A, > 150 µM (not active); in assay [11], 0.145 µM (active); in assay [12], 0.3 µM (active); in [13], < 0.1 µM (active); in assay [15], 4.38 µM (active). Besides, the values for the concentration giving a half-maximal response (EC50) (in the assay with Streptococcus; in assay [17]; in assay [18]) were 8.99 µM (active), 3.19 µM (active) and 0.953 µM (active), respectively. Besides, the AC50 on Paired box protein Pax-8 was 1.16 µM (active).

For the origin of these results see ChEMBL document CHEMBL1201862, “PubChem BioAssay data set” (2004).
